Measurements as given in US8030547B2, “Gene coding for acetolactate synthase” (priority 2002, dated 2011).

Assays:
Format in all cases: cell-based, Oryza sativa var. Kinmaze
[1] = system: Vg line resistant mutant rice culture cells; assay: Growth of rice culture cells (relative wet weight of callus) in the presence of herbicide, Vg line
Description: (§1) Next, endosperm portions were removed from the callus induced on the medium, and then subculture was performed. Then, part of the obtained calli was sub-cultured, that is, cultured successively once per two weeks in a liquid medium (the composition is the same as in that shown in Table 3, but not supplemented with Gelrite) supplemented with 1 μM bispyribac-sodium (one type of PC herbicides). Two to 6 weeks later the culture cells started to wither. About 2 months later, a plurality of non-discolored cell masses that were thought to be conducting cell division were obtained from among culture cell populations most of which had died and became discolored brown. These cell masses were isolated and cultured, so that a plurality of cell lines that can proliferate in the presence of 2 μM bispyribac-sodium were obtained. […]
(§2) Approximately 1.5 g (wet weight) of the resistant mutant was transplanted into a 200 ml Erlenmeyer flask supplemented with 50 ml of a MS-2,4-D liquid medium and bispyribac-sodium at a certain concentration, followed by culturing at approximately 27° C. for a certain period. The wet weight of the callus was measured periodically. The relative amount of increase was determined based on the wet weight of the transplanted resistant mutant. In addition, the experiment was performed three times with different bispyribac-sodium concentrations, and the standard error was calculated. […]

[2] = system: Ga line resistant mutant rice culture cells; assay: Growth of rice culture cells (relative wet weight of callus) in the presence of herbicide, Ga line
Description: as §1, §2

[3] = system: Rb line resistant mutant rice culture cells; assay: Growth of rice culture cells (relative wet weight of callus) in the presence of herbicide, Rb line
Description: as §1, §2

[4] = system: Sr line resistant mutant rice culture cells; assay: Growth of rice culture cells (relative wet weight of callus) in the presence of herbicide, Sr line
Description: as §1, §2

[5] = system: wild type (Kinmaze) rice culture cells; assay: Growth of rice culture cells (relative wet weight of callus) in the presence of herbicide, wild type
Description: Approximately 1.5 g (wet weight) of the resistant mutant was transplanted into a 200 ml Erlenmeyer flask supplemented with 50 ml of a MS-2,4-D liquid medium and bispyribac-sodium at a certain concentration, followed by culturing at approximately 27° C. for a certain period. The wet weight of the callus was measured periodically. The relative amount of increase was determined based on the wet weight of the transplanted resistant mutant. In addition, the experiment was performed three times with different bispyribac-sodium concentrations, and the standard error was calculated. FIGS. 3 to 6 show the relation between changes in bispyribac-sodium concentration and the relative weight on day 8 or 12 in the resistant mutant. As a control, a similar experiment was conducted using the wild type (Kinmaze).
Also, in the case of using chlorsulfuron instead of bispyribac-sodium, the growth rates of the wild type and the resistant mutants were measured as described above. […] Further, FIGS. 9 to 12 show the relation between changes in chlorsulfuron concentration and relative weight on day 8 or 10 in the resistant mutants, that is, Rb line, Sr line, Ga line and Vg line.

[6] = group supplemented with 10 μM, day 8 or 12
[7] = group supplemented with 1 nM herbicide, day 8 (bispyribac-sodium) or day 9 (chlorsulfuron)

COc1cc(OC)nc(Oc2cccc(Oc3nc(OC)cc(OC)n3)c2C(=O)O)n1 [bispyribac-sodium]
effect on the growth of Vg line ([1]; compared with wild type, day 8 or 12): smaller than that in the wild type | growth of Ga line (relative weight) [2, 6]: almost none of the growth | growth of Rb line (relative weight) [3, 6]: almost none of the growth | growth of Sr line (relative weight) [4, 6]: almost none of the growth | growth of the wild type (relative weight) [5, 7]: not inhibited | growth of the wild type (relative weight) ([5]; group supplemented with 10 nM or more, day 8): inhibited

COc1nc(C)nc(NC(=O)NS(=O)(=O)c2ccccc2Cl)n1 [chlorsulfuron]
growth of Vg line on addition of herbicide (relative weight) ([1]; day 8 or 10): not inhibited so much | growth of Ga line on addition of herbicide (relative weight) ([2]; day 8 or 10): not inhibited so much | growth of Rb line on addition of herbicide (relative weight) ([3]; day 8 or 10): not inhibited so much | growth of Sr line on addition of herbicide (relative weight) ([4]; day 8 or 10): not inhibited so much | growth of the wild type (relative weight) [5, 7]: inhibited
